Source: the supplement of paper PMC6315032

Tests used:
Assay in all cases: apparent dissociation constant (pKDapp, Kinobeads competition, Cheng-Prusoff corrected) (-log10 M); higher = tighter binding
STK16 = STK16 (UniProt O75716); conditions: affinity matrix / lysate: Kinobeads, mixed HEK293/K-562/placenta lysate
TNK2 = TNK2 (UniProt Q07912); conditions: affinity matrix / lysate: Kinobeads, mixed HEK293/K-562/placenta lysate
ABL1 = ABL1 (UniProt P00519); conditions: affinity matrix / lysate: Kinobeads, mixed HEK293/K-562/placenta lysate
KIAA0999 = KIAA0999 (UniProt Q9Y2K2); conditions: affinity matrix / lysate: Kinobeads, mixed HEK293/K-562/placenta lysate
CHEK2 = CHEK2 (UniProt O96017); conditions: affinity matrix / lysate: Kinobeads, mixed HEK293/K-562/placenta lysate
CIT = CIT (UniProt O14578); conditions: affinity matrix / lysate: Kinobeads, mixed HEK293/K-562/placenta lysate
FES = FES (UniProt P07332); conditions: affinity matrix / lysate: Kinobeads, mixed HEK293/K-562/placenta lysate
PRKCI = PRKCI (UniProt P41743); conditions: affinity matrix / lysate: Kinobeads, mixed HEK293/K-562/placenta lysate
TAOK3 = TAOK3 (UniProt Q9H2K8); conditions: affinity matrix / lysate: Kinobeads, mixed HEK293/K-562/placenta lysate
CDC7 = CDC7 (UniProt O00311); conditions: affinity matrix / lysate: Kinobeads, mixed HEK293/K-562/placenta lysate
PIK3R4 = PIK3R4 (UniProt Q99570); conditions: affinity matrix / lysate: Lipid Kinobeads, mixed HeLa/Jurkat/K-562 lysate
FYN = FYN (UniProt P06241); conditions: affinity matrix / lysate: Kinobeads, mixed HEK293/K-562/placenta lysate
CDC2 = CDC2 (UniProt P06493); conditions: affinity matrix / lysate: Kinobeads, mixed HEK293/K-562/placenta lysate
SGK3 = SGK3 (UniProt Q96BR1); conditions: affinity matrix / lysate: Kinobeads, mixed HEK293/K-562/placenta lysate
STK17A = STK17A (UniProt Q9UEE5); conditions: affinity matrix / lysate: Kinobeads, mixed HEK293/K-562/placenta lysate
GSK3A = GSK3A (UniProt P49840); conditions: affinity matrix / lysate: Kinobeads, mixed HEK293/K-562/placenta lysate
CAMK2G = CAMK2G (UniProt Q13555); conditions: affinity matrix / lysate: Kinobeads, mixed HEK293/K-562/placenta lysate
BMPR1A = BMPR1A (UniProt P36894); conditions: affinity matrix / lysate: Kinobeads, mixed HEK293/K-562/placenta lysate
AXL = AXL (UniProt P30530); conditions: affinity matrix / lysate: Kinobeads, mixed HEK293/K-562/placenta lysate
EIF2AK4 = EIF2AK4 (UniProt Q9P2K8); conditions: affinity matrix / lysate: Kinobeads, mixed HEK293/K-562/placenta lysate
PKN2 = PKN2 (UniProt Q16513); conditions: affinity matrix / lysate: Kinobeads, mixed HEK293/K-562/placenta lysate
PIK3C2A = PIK3C2A (UniProt O00443); conditions: affinity matrix / lysate: Lipid Kinobeads, mixed HeLa/Jurkat/K-562 lysate
MASTL = MASTL (UniProt Q96GX5); conditions: affinity matrix / lysate: Kinobeads, mixed HEK293/K-562/placenta lysate
PIM2 = PIM2 (UniProt Q9P1W9); conditions: affinity matrix / lysate: Kinobeads, mixed HEK293/K-562/placenta lysate
NEK6 = NEK6 (UniProt Q9HC98); conditions: affinity matrix / lysate: Kinobeads, mixed HEK293/K-562/placenta lysate
NEK1 = NEK1 (UniProt Q96PY6); conditions: affinity matrix / lysate: Kinobeads, mixed HEK293/K-562/placenta lysate
TESK2 = TESK2 (UniProt Q96S53); conditions: affinity matrix / lysate: Kinobeads, mixed HEK293/K-562/placenta lysate
AURKB = AURKB (UniProt Q96GD4); conditions: affinity matrix / lysate: Kinobeads, mixed HEK293/K-562/placenta lysate
IRAK3 = IRAK3 (UniProt Q9Y616); conditions: affinity matrix / lysate: Kinobeads, mixed HEK293/K-562/placenta lysate
STRADA = STRADA (UniProt Q7RTN6); conditions: affinity matrix / lysate: Kinobeads, mixed HEK293/K-562/placenta lysate
MAP4K3 = MAP4K3 (UniProt Q8IVH8); conditions: affinity matrix / lysate: Kinobeads, mixed HEK293/K-562/placenta lysate
BTK = BTK (UniProt Q06187); conditions: affinity matrix / lysate: Kinobeads, mixed HEK293/K-562/placenta lysate
PIM3 = PIM3 (UniProt Q86V86); conditions: affinity matrix / lysate: Kinobeads, mixed HEK293/K-562/placenta lysate

Measured: apparent dissociation constant (-log10 M)

STK16, sequence (O75716 whole entry): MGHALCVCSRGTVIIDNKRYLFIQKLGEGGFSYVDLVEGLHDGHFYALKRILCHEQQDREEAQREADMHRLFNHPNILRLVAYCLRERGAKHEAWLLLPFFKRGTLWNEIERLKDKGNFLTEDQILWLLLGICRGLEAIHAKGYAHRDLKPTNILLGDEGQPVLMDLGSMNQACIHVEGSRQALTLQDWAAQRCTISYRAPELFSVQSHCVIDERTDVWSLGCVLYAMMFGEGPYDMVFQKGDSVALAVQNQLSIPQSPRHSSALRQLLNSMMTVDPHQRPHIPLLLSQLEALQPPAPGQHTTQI
STRADA, sequence (Q7RTN6 whole entry): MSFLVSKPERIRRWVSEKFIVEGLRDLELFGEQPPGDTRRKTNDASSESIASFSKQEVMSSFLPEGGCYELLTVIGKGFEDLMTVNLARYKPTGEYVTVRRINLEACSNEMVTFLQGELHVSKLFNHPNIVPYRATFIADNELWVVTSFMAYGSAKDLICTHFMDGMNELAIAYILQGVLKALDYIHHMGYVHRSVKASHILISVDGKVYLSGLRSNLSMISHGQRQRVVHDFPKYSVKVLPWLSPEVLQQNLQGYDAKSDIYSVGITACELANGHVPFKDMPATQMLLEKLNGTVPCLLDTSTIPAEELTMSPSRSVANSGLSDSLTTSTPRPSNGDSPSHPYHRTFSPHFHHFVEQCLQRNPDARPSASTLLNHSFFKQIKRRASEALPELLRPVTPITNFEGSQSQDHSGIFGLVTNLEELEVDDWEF
TNK2, sequence (Q07912 whole entry, looked up): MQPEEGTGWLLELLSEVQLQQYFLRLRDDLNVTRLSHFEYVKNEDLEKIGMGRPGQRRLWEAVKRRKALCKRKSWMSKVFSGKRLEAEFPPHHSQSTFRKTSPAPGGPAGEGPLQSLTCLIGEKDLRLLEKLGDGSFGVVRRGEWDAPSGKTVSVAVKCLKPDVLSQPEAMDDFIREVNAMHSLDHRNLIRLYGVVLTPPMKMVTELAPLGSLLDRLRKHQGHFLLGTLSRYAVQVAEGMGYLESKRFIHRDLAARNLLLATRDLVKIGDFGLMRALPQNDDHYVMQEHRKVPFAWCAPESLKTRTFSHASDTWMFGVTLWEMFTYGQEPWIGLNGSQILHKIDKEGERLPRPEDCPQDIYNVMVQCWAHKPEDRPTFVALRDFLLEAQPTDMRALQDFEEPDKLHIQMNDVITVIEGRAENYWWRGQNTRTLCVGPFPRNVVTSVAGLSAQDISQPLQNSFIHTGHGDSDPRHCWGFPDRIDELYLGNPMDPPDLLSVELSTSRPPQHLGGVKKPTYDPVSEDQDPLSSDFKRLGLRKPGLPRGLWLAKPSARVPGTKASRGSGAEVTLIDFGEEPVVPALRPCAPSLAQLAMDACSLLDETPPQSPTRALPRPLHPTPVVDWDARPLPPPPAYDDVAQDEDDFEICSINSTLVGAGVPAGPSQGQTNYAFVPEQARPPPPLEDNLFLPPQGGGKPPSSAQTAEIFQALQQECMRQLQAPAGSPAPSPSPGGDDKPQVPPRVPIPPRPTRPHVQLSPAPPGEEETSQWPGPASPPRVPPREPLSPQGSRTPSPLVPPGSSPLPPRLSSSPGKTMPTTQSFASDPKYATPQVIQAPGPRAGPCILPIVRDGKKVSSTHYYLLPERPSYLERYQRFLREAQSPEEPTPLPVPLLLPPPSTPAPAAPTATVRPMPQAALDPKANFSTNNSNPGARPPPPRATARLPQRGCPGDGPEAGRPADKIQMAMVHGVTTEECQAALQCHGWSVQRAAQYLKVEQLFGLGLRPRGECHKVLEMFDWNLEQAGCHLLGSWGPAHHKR
GSK3A, sequence (P49840 whole entry, looked up): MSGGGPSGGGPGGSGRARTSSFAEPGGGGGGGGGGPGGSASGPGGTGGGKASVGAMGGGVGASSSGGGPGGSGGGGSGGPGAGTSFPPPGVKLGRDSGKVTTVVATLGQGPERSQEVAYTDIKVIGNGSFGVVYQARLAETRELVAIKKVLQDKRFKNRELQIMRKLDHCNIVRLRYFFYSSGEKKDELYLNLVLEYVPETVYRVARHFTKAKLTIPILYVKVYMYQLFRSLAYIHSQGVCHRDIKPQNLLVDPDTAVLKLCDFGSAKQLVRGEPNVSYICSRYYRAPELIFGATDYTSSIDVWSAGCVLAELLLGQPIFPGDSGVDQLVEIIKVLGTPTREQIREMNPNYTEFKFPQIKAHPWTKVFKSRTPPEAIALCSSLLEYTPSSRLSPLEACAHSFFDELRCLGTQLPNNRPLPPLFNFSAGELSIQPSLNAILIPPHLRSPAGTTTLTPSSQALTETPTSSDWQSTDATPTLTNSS
AURKB, sequence (Q96GD4 whole entry): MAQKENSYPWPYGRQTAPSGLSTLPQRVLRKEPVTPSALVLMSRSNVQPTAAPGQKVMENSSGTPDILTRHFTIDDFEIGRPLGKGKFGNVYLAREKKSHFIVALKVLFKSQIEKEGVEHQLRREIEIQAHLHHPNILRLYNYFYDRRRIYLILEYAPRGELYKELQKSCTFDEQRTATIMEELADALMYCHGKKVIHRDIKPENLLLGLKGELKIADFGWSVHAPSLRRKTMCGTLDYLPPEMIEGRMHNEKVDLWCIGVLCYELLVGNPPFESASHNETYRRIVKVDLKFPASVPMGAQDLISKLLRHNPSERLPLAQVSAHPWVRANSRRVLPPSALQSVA
KIAA0999, sequence (Q9Y2K2 whole entry, looked up): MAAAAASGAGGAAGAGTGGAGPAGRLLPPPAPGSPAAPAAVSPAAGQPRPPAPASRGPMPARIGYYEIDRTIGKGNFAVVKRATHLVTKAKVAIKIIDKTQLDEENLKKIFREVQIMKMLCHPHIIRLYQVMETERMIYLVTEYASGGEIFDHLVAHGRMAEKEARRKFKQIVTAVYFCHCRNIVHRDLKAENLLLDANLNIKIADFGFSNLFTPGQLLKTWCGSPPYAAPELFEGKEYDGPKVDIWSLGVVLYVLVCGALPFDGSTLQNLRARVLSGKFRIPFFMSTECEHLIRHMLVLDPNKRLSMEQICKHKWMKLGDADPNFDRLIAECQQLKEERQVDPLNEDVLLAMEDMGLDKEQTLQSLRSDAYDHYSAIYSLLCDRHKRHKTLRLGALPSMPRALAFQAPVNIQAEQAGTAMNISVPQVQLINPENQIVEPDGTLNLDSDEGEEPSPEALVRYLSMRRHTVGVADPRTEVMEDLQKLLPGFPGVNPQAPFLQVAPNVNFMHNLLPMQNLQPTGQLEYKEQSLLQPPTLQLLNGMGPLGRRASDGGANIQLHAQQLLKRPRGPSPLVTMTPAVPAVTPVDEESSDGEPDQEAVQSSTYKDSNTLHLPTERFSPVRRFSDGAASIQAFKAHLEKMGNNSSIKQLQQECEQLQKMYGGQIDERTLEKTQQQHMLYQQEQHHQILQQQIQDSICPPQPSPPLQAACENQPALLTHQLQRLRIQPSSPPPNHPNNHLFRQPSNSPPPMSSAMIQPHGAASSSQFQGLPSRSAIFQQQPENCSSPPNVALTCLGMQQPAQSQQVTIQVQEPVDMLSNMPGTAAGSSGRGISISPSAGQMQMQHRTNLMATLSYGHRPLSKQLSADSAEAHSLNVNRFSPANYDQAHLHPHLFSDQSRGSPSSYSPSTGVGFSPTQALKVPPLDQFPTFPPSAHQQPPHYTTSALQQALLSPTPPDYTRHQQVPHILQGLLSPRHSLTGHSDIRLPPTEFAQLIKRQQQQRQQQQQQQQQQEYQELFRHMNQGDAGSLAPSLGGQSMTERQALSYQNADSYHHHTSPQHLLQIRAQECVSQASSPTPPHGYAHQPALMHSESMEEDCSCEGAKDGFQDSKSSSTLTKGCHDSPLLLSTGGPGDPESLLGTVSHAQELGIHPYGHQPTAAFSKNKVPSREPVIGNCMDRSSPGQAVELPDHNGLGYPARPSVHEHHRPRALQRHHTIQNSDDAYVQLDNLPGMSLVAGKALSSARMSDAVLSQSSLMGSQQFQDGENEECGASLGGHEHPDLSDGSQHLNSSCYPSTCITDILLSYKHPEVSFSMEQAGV
CHEK2, sequence (O96017 whole entry): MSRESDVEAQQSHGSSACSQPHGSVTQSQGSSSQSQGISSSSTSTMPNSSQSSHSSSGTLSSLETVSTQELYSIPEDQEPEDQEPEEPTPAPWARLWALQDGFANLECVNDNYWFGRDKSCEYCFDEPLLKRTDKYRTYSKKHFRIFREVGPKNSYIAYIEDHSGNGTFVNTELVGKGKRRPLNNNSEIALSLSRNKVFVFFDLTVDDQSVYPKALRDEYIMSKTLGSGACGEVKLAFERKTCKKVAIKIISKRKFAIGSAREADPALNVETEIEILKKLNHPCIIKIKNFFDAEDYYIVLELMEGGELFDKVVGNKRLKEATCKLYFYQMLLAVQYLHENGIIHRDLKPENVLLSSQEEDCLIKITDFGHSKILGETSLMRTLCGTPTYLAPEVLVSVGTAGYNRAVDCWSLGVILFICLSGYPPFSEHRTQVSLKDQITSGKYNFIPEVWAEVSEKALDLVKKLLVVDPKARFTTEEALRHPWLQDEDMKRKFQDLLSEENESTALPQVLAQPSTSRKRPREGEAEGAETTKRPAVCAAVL
NEK6, sequence (Q9HC98 whole entry): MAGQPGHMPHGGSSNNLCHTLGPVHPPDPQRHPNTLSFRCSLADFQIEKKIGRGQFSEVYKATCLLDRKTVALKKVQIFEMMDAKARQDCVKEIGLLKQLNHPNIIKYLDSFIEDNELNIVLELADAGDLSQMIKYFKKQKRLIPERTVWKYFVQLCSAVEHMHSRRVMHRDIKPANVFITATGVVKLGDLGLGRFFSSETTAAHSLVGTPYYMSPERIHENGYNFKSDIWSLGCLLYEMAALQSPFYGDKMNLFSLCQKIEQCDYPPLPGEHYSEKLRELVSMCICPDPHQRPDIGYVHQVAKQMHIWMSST

COc1ccc(-c2ccc3c(N4CCOC[C@@H]4C)nc(N4CCOC[C@@H]4C)nc3n2)cc1CO [AZD8055]
< 6: all assays above

CCNC(=O)Nc1ccc(-c2nc(N3CCOC[C@@H]3C)c3c(n2)C(C)(C)S(=O)(=O)C3)cc1 [CZ415]
< 6: all assays above
